Molecules are shown by their SMILES.

This test deals with T1, human KDR (Homo sapiens, UniProt P35968).
T1 construct: cloning the cytoplasmic domain of the KDR kinase as an in frame fusion at the carboxy terminus of the GST gene; made in house; host or cells: Spodoptera frugiperda (Sf21) insect cells, baculovirus vector pAcG2T
As to the kind of experiment: VEGF receptor kinase assay. Type of test: biochemical.

T1 sequence (P35968 786-1356 limits assumed): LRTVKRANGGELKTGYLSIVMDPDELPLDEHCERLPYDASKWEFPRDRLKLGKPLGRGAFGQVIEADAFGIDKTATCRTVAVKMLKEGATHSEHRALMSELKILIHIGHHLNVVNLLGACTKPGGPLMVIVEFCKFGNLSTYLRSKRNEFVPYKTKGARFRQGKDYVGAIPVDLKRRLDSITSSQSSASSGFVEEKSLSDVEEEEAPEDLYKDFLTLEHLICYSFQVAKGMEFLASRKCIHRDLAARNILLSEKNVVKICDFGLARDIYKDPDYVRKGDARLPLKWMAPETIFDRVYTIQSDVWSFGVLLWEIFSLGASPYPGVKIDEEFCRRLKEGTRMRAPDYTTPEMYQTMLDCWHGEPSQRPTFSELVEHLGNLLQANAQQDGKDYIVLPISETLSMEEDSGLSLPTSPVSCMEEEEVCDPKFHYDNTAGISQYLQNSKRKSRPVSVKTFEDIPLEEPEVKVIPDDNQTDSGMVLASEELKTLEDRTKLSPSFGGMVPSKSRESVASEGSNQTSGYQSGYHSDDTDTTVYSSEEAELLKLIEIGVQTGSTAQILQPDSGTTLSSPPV
Description: I. VEGF Receptor Kinase Assay
VEGF receptor kinase activity is measured by incorporation of radio-labeled phosphate into polyglutamic acid, tyrosine, 4:1 (pEY) substrate. The phosphorylated pEY product is trapped onto a filter membrane and the incorporation of radio-labeled phosphate quantified by scintillation counting.
VEGF Receptor Kinase The intracellular tyrosine kinase domains of human KDR (Terman, B. I. et al. Oncogene (1991) vol. 6, pp. 1677-1683.) and Flt-1 (Shibuya, M. et al. Oncogene (1990) vol. 5, pp. 519-524) were cloned as glutathione S-transferase (GST) gene fusion proteins. This was accomplished by cloning the cytoplasmic domain of the KDR kinase as an in frame fusion at the carboxy terminus of the GST gene. Soluble recombinant GST-kinase domain fusion proteins were expressed in Spodoptera frugiperda (Sf21) insect cells (Invitrogen) using a baculovirus expression vector (pAcG2T, Pharmingen). […]

In the case of `CNC(=O)N1CCN(Cc2ccnc(Nc3ncc(C#N)s3)c2)CC1` [Compound 4-4, 4-[2-(5-cyano-thiazol-2-ylamino)-pyridin-4-ylmethyl]-piperazine-1-carboxylic acid methylamide], the kinase inhibitory activity result is “inhibits the kinase KDR”.

Source of the values: patent US6872724B2, “Polymorphs with tyrosine kinase activity” (Merck & Co., Inc., priority 2002, dated 2005).
